Our source for the IC50 values is patent US6967196B1, “Sulfonamide compounds and uses thereof” (Bristol-Myers Squibb Company, priority 1999, dated 2005).

Counter-ions that a name gives are not always drawn.

The first assay has as its system amyloid β production in transfected H4 (human neuroglioma) cells stably expressing APP constructs. The experiment in a line: In vitro cell-based assay of inhibitors of amyloid β production (ELISA). Particulars: Homo sapiens, 16 h, Table B; transfected H4 cells stably expressing APP; approximately 16 hours incubation; amyloid β in medium by ELISA; read-out: ACTIVITY (inhibitory concentration IC50, inhibition of amyloid β production). The method, boiled down:
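Transfected H4 cells stably expressing wild-type or variant APP were exposed to compounds (initial screen 10-100 μM) for about 16 h. Secreted Aβ in the medium was quantified by sandwich ELISA (C-terminal-specific monoclonal capture, N-terminal-specific polyclonal detection) against an Aβ standard curve; dose-response runs followed for actives.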
Background: In an ELISA, binding on a coated surface is turned into a signal by an enzyme label.
As to `CCN(CC)C(=O)CCCc1cc(F)ccc1[C@@H](C)N(c1cc(F)ccc1F)S(=O)(=O)c1ccc(Cl)cc1` [Example 223, 4-[2-((1R)-1-{[(4-chlorophenyl)sulfonyl]-2,5-difluoroanilino}ethyl)-5-fluorophenyl]-N,N-diethylbutanamide], the IC50 lay in the range of 25 to 50 nM.

The assay is the same for the next values; noted with them: Homo sapiens, 16 h, transfected H4 cells expressing APP, approximately 16 hours incubation, amyloid β in medium by ELISA; read-out: ACTIVITY (IC50, inhibition of amyloid β production).
Turning to `CCC(C)(C)c1ccc(OCCCCNC(=O)[C@@H](C)N(c2cc(Cl)ccc2F)S(=O)(=O)c2ccc(Cl)cc2)c(C(C)(C)CC)c1` [Example 1348], the IC50 was over 500 nM.
The same measure, in the same setting: in the case of `C[C@H](C(=O)NCCCCCCO)N(c1cc(Cl)ccc1F)S(=O)(=O)c1ccc(Cl)cc1` [Example 1350] it was 100 to 500 nM.
Take `C[C@H](COC(=O)NCCCn1ccnc1)N(c1cc(Cl)ccc1CO)S(=O)(=O)c1ccc(Cl)cc1` [Example 1285]: the IC50 was at most 25 nM.

Staying with this assay, now noted: Homo sapiens, 16 h, transfected H4 cells stably expressing APP constructs; approximately 16 hours incubation; amyloid β in medium by ELISA; read-out: ACTIVITY (IC50, inhibition of amyloid β production).
With `O=S(=O)(c1ccc(Sc2ccccc2)cc1)N(Cc1ccccc1OCCCSc1ccccc1)c1cc(F)ccc1F` [Example 1095, N-(2,5-difluorophenyl)-4-(phenylsulfanyl)-N-{2-[3-(phenylsulfanyl)propoxy]benzyl}benzenesulfonamide], the IC50 was over 10000 nM.
As for `C[C@H](CCC[N+](=O)[O-])N(c1cc(Cl)ccc1Cl)S(=O)(=O)c1ccc(Cl)cc1` [Example 1099, 4-chloro-N-(2,5-dichlorophenyl)-N-[4-nitro-1(R)-methylbutyl]benzenesulfonamide], the IC50 is at most 25 nM.

The assay is the same for the next values; noted with them: Homo sapiens, 16 h, transfected H4 cells stably expressing APP; approx. 16 h incubation; amyloid β in medium by ELISA; read-out: ACTIVITY (IC50, inhibition of amyloid β production).
With `CCOc1ccc(C(=O)N2CCCCC2CCOc2ccccc2CN(c2cc(F)ccc2F)S(=O)(=O)c2ccc(Cl)cc2)cc1` (stereo not shown) [Example 648, 4-chloro-N-(2,5-difluorophenyl)-N-{2-[2-[1-(4-ethoxybenzoyl)-2-piperidinyl]ethoxy}benzyl)benzenesulfonamide], the IC50 lay in the range of 100 to 500 nM.

The assay is the same for the next values; noted with them: Homo sapiens, 16 h, transfected H4 cells stably expressing APP; approximately 16 hours incubation; amyloid β in medium by ELISA; read-out: ACTIVITY (IC50, inhibition of amyloid β production).
`CSc1ccccc1N(Cc1ccccc1OCCCN1CCCCC1)S(=O)(=O)c1ccc(Cl)cc1` [Example 924, 4-chloro-N-[2-(methylsulfanyl)phenyl]-N-{2-[3-(1-piperidinyl)propoxy]benzyl}benzenesulfonamide hydrochloride]: the IC50 was over 500 nM.
Same read-out and setting: the same measure for `O=C(/C=C\c1ccccc1)N1CCCCC1CCOc1ccccc1CN(c1cc(F)ccc1F)S(=O)(=O)c1ccc(Cl)cc1` (stereo not shown) [Example 832, 4-chloro-N-(2,5-difluorophenyl)-N-[2-(2-{1-[(2Z)-3-phenyl-2-propenoyl]-2-piperidinyl}ethoxy)benzyl]benzenesulfonamide]: 100 to 500 nM.
Still for that read-out and setting: in the case of `O=S(=O)(c1ccc(Cl)cc1)N(Cc1ccccc1OCCCN1CCSCC1)c1ccccc1` [Example 937, 4-chloro-N-phenyl-N-{2-[3-(4-thiomorpholinyl)propoxy]benzyl}benzenesulfonamide hydrochloride] it was over 500 nM; in that of `CCSCCCc1cc(F)ccc1[C@@H](C)N(c1cc(F)ccc1F)S(=O)(=O)c1ccc(SCC)cc1` [Example 936, N-(2,5-difluorophenyl)-4-(ethylsulfanyl)-N-((1R)-1-{2-[3-(ethylsulfanyl)propyl]-4-fluorophenyl}ethyl)benzenesulfonamide], over 500 nM; in that of `O=C(CCc1ccccc1CN(c1ccccc1)S(=O)(=O)c1ccccc1)N1CCCCC1` [Example 1041, N-{2-[3-oxo-3-(1-piperidinyl)propyl]benzyl}-N-phenylbenzenesulfonamide], over 500 nM.
The same measure, in the same setting: in the case of `C[C@H](c1ccccc1CCCn1ccnc1)N(c1cc(F)ccc1F)S(=O)(=O)c1ccc(Cl)cc1` [Example 1056, 4-chloro-N-(2,5-difluorophenyl)-N-((1R)-1-{2-[3-(1H-imidazol-1-yl)propyl]phenyl}ethyl)benzenesulfonamide hydrochloride] it was over 500 nM.

Staying with this assay, now noted: Table B; transfected H4 cells stably expressing APP; approximately 16 hours incubation; amyloid β in medium by ELISA; read-out: ACTIVITY (inhibitory concentration IC50, inhibition of amyloid β production).
Take `CC(=O)Nc1nc(C)c(S(=O)(=O)N(Cc2ccccc2OCCCN2CCCCC2)c2cc(Cl)ccc2Cl)s1` [Example 259, N-{5-[(2,5-dichloro{2-[3-(1-piperidinyl)propoxy]benzyl}anilino)sulfonyl]-4-methyl-1,3-thiazol-2-yl}acetamide Hydrochloride]: the IC50 was 25 to 50 nM.
Still for that read-out and setting: in the case of `C[C@H](O)CCCC(=O)OC(C)(C)C` [Example 34, 1,1-Dimethylethyl (5S)-5-hydroxyhexanoate] it was at most 25 nM.

Staying with this assay, now noted: transfected H4 cells stably expressing APP constructs; approximately 16 hours incubation; amyloid β in medium by ELISA; read-out: ACTIVITY (IC50, inhibition of amyloid β production).
Turning to `C[C@H](CCCSC(C)(C)C)N(c1cc(Cl)ccc1CO)S(=O)(=O)c1ccc(Cl)cc1` [Example 1229], the IC50 is at most 25 nM.
`C[C@H](CCCS(C)(=O)=O)N(c1cc(F)ccc1F)S(=O)(=O)c1ccc(Cl)cc1` [Example 1170, 4-chloro-N-[2,5-difluorophenyl]-N-[1(R)-methyl-(4-methylsulfonyl)butyl]benzenesulfonamide]: the IC50 was at most 25 nM.
Same read-out and setting: the same measure for `CCS(=O)(=O)CCC[C@@H](C)N(c1cc(Cl)ccc1F)S(=O)(=O)c1ccc(Cl)cc1` [Example 1163, 4-chloro-N-[5-chloro-2-fluorophenyl]-N-[1(R)-methyl-(4-ethylsulfonyl)butyl]benzenesulfonamide]: at most 25 nM; for “4-chloro-N-(2,5-dichlorophenyl)-N-[3-[2-[4-chloro-N-(2,5-dichlorophenyl)-N-[(3-amino)-1(R)-methylpropyl]benzenesulfonamide]-3,4-dioxo-1-cyclobutenyl)amine-1(R)- [Example 1143]”: 100 to 500 nM; for `CC(C)C[S+]([O-])CCC[C@@H](C)N(c1cc(Cl)ccc1Cl)S(=O)(=O)c1ccc(Cl)cc1` (stereo partly shown) [Example 1182]: at most 25 nM.
The same measure, in the same setting: in the case of `C[C@H](CCC[S+](C)[O-])N(c1cc(Cl)ccc1Cl)S(=O)(=O)c1ccc(Cl)cc1` (stereo partly drawn) [Example 1171, 4-chloro-N-[2,5-dichlorophenyl]-N-[1(R)-methyl-(4-methylsulfinyl)butyl]benzenesulfonamide] it was at most 25 nM; in that of `C[C@H](CCC[S+](C)[O-])N(c1cc(F)ccc1F)S(=O)(=O)c1ccc(Cl)cc1` (stereo partly drawn) [Example 1175, 4-chloro-N-[2,5-difluorophenyl]-N-[1(R)-methyl-(4-methylsulfinyl)butyl]benzenesulfonamide], at most 25 nM.

The same assay, now with this note: transfected H4 cells stably expressing APP; approx. 16 h incubation; amyloid β in medium by ELISA; read-out: ACTIVITY (IC50, inhibition of amyloid β production).
For the compound “N-{3-[2-(1-{[(4-chlorophenyl)sulfonyl]-2,5-difluoroanilino}ethyl)phenoxy]propyl}-4-fluorobenzamide [Example 679]”, the IC50 fell in the range of 100 to 500 nM.
Still for that read-out and setting: in the case of “N-{3-[2-(1-{[(4-chlorophenyl)sulfonyl]-2,5-difluoroanilino}ethyl)phenoxy]propyl}-N,4-dimethylbenzamide [Example 741]” it was 100 to 500 nM; in that of “N-{3-[2-({[(4-chlorophenyl)sulfonyl]-2,5-difluoroanilino}methyl)phenoxy]propyl}-N-methylbutanamide [Example 638]”, 100 to 500 nM.
Same read-out and setting: in the case of “2,2,2-trichloro-N-{2-[2-(1-{[(4-chlorophenyl)sulfonyl]-2,5-difluoroanilino}ethyl)phenoxy]ethyl}-N-ethylacetamide [Example 744]” it was 100 to 500 nM; in that of “N-{2-[2-(1-{[(4-chlorophenyl)sulfonyl]-2,5-difluoroanilino}ethyl)phenoxy]ethyl}-2-ethyl-N-methylhexanamide [Example 793]”, 100 to 500 nM; in that of `CC(c1ccccc1OCCN(C)S(=O)(=O)CC(F)(F)F)N(c1cc(F)ccc1F)S(=O)(=O)c1ccc(Cl)cc1` (stereo not shown) [Example 701, 4-chloro-N-(2,5-difluorophenyl)-N-{1-[2-(2-{methyl[(2,2,2-trifluorophenyl)sulfonyl]amino}ethoxy)phenyl]ethyl}benzenesulfonamide], 100 to 500 nM.
As for `CCCCC(=O)N(CC)CC(C)Oc1ccccc1C(C)N(c1cc(F)ccc1F)S(=O)(=O)c1ccc(Cl)cc1` (stereo not shown) [Example 777, N-{2-[2-(1-{[(4-chlorophenyl)sulfonyl]-2,5-difluoroanilino}ethyl)phenoxy]propyl}-N-ethylpentamide], the IC50 lay within 100 to 500 nM.

The same assay, now with this note: transfected H4 cells stably expressing APP; approximately 16 hours incubation; amyloid β in medium by ELISA; read-out: ACTIVITY (IC50, inhibition of amyloid β production).
In the case of “4-[2-((1R)-1-{[(4-chlorophenyl)sulfonyl]-2,5-difluoroanilino}ethyl)-5-fluorophenyl]-N-(cyanomethoxy)butanamide [Example 1079]”, the IC50 is over 500 nM.
The same measure, in the same setting: the same measure for “3,4-dichloro-N-{3-[2-({[(4-chlorophenyl)sulfonyl]-2,5-difluoroanilino}methyl)phenoxy]propyl}-N-methylbenzamide [Example 932]”: over 500 nM; for `O=S(=O)(c1ccc(Cl)cc1)N(Cc1ccccc1OCC[S+]([O-])C1CCCCC1)c1cc(F)ccc1F` (stereo not shown) [Example 1050, 4-chloro-N-{2-[2-(cyclohexylsulfinyl)ethoxy]benzy}-N-(2,5-difluorophenyl)benzenesulfonamide]: over 500 nM; for “N-{3-[2-({[(4-chlorophenyl)sulfonyl]-2,5-difluoroanilino}methyl)phenoxy]propyl}-3-fluoro-N-methylbenzamide [Example 862]”: 100 to 500 nM.
Same read-out and setting: the same measure for “N-{3-[2-({[(4-chlorophenyl)sulfonyl]-2,5-difluoroanilino}methyl)phenoxy]propyl}-3,4,5-trimethoxy-N-methylbenzamide [Example 989]”: over 500 nM.
